# Measured values reported in ChEMBL document CHEMBL1201861, “Genomics of Drug Sensitity in Cancer screening data, Wellcome Trust Sanger Institute”.
# Test system: NCI-H1648;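 further: cell viability assay measuring inhibition of NCI-H1648 cell growth, from the Sanger screening data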
# Test: cells
# Assay type: functional, cell-based, Homo sapiens
# Conditions: Homo sapiens, NCI-H1648
# Description: SANGER: Inhibition of human NCI-H1648 cell growth in a cell viability assay.
row,Structure (SMILES),IC50
1,Cc1cn(-c2cc(NC(=O)c3ccc(C)c(Nc4nccc(-c5cccnc5)n4)c3)cc(C(F)(F)F)c2)cn1 [NILOTINIB],> 2 µM

# Test system: NCI-H510A;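 further: growth inhibition of NCI-H510A cells, read out with a cell viability assay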
# Test: cells
# Assay type: functional, cell-based, Homo sapiens
# Conditions: Homo sapiens, NCI-H510A
# Description: SANGER: Inhibition of human NCI-H510A cell growth in a cell viability assay.
row,Structure (SMILES),IC50
1,Cc1cn(-c2cc(NC(=O)c3ccc(C)c(Nc4nccc(-c5cccnc5)n4)c3)cc(C(F)(F)F)c2)cn1 [NILOTINIB],> 2 µM

# Test system: SNU1;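 further: growth inhibition of human NCI-SNU-1 cells, measured with a cell viability assay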
# Test: cells
# Assay type: functional, cell-based, Homo sapiens
# Conditions: Homo sapiens, SNU1
# Description: SANGER: Inhibition of human NCI-SNU-1 cell growth in a cell viability assay.
row,Structure (SMILES),IC50
1,Cc1cn(-c2cc(NC(=O)c3ccc(C)c(Nc4nccc(-c5cccnc5)n4)c3)cc(C(F)(F)F)c2)cn1 [NILOTINIB],> 2 µM

# Test system: NKM-1;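 further: growth inhibition of NKM-1 cells, read out with a cell viability assay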
# Test: cells
# Assay type: functional, cell-based, Homo sapiens
# Conditions: Homo sapiens, NKM-1
# Description: SANGER: Inhibition of human NKM-1 cell growth in a cell viability assay.
row,Structure (SMILES),IC50
1,Cc1cn(-c2cc(NC(=O)c3ccc(C)c(Nc4nccc(-c5cccnc5)n4)c3)cc(C(F)(F)F)c2)cn1 [NILOTINIB],0.901 µM

# Test system: ONS-76;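 further: growth inhibition of human ONS-76 cells, read out with a cell viability assay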
# Test: cells
# Assay type: functional, cell-based, Homo sapiens
# Conditions: Homo sapiens, ONS-76
# Description: SANGER: Inhibition of human ONS-76 cell growth in a cell viability assay.
row,Structure (SMILES),IC50
1,Cc1cn(-c2cc(NC(=O)c3ccc(C)c(Nc4nccc(-c5cccnc5)n4)c3)cc(C(F)(F)F)c2)cn1 [NILOTINIB],> 2 µM

# Test system: RPMI-8866
# Test: cells
# Assay type: functional, cell-based, Homo sapiens
# Conditions: Homo sapiens, RPMI-8866
# Description: SANGER: Inhibition of human RPMI-8866 cell growth in a cell viability assay.
row,Structure (SMILES),IC50
1,Cc1cn(-c2cc(NC(=O)c3ccc(C)c(Nc4nccc(-c5cccnc5)n4)c3)cc(C(F)(F)F)c2)cn1 [NILOTINIB],> 2 µM

# Test system: SCC-15;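 further: growth inhibition of SCC-15 cells, read out with a cell viability assay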
# Test: cells
# Assay type: functional, cell-based, Homo sapiens
# Conditions: Homo sapiens, SCC-15
# Description: SANGER: Inhibition of human SCC-15 cell growth in a cell viability assay.
row,Structure (SMILES),IC50
1,Cc1cn(-c2cc(NC(=O)c3ccc(C)c(Nc4nccc(-c5cccnc5)n4)c3)cc(C(F)(F)F)c2)cn1 [NILOTINIB],> 2 µM

# Test system: SF-126;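 further: growth inhibition of human SF126 cells, read out with a cell viability assay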
# Test: cells
# Assay type: functional, cell-based, Homo sapiens
# Conditions: Homo sapiens, SF-126
# Description: SANGER: Inhibition of human SF126 cell growth in a cell viability assay.
row,Structure (SMILES),IC50
1,Cc1cn(-c2cc(NC(=O)c3ccc(C)c(Nc4nccc(-c5cccnc5)n4)c3)cc(C(F)(F)F)c2)cn1 [NILOTINIB],> 2 µM

# Test system: SK-UT-1;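 further: growth inhibition of SK-UT-1 cells, measured by a cell viability assay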
# Test: cells
# Assay type: functional, cell-based, Homo sapiens
# Conditions: Homo sapiens, SK-UT-1
# Description: SANGER: Inhibition of human SK-UT-1 cell growth in a cell viability assay.
row,Structure (SMILES),IC50
1,Cc1cn(-c2cc(NC(=O)c3ccc(C)c(Nc4nccc(-c5cccnc5)n4)c3)cc(C(F)(F)F)c2)cn1 [NILOTINIB],> 2 µM

# Test system: SNB-75;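 further: cell viability assay measuring growth inhibition of human SNB-75 cells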
# Test: cells
# Assay type: functional, cell-based, Homo sapiens
# Conditions: Homo sapiens, SNB-75
# Description: SANGER: Inhibition of human SNB75 cell growth in a cell viability assay.
row,Structure (SMILES),IC50
1,Cc1cn(-c2cc(NC(=O)c3ccc(C)c(Nc4nccc(-c5cccnc5)n4)c3)cc(C(F)(F)F)c2)cn1 [NILOTINIB],> 2 µM

# Test system: SW872;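 further: growth inhibition of SW872 cells, read out by a viability assay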
# Test: cells
# Assay type: functional, cell-based, Homo sapiens
# Conditions: Homo sapiens, SW872
# Description: SANGER: Inhibition of human SW872 cell growth in a cell viability assay.
row,Structure (SMILES),IC50
1,Cc1cn(-c2cc(NC(=O)c3ccc(C)c(Nc4nccc(-c5cccnc5)n4)c3)cc(C(F)(F)F)c2)cn1 [NILOTINIB],> 2 µM

# Test system: SW982;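 further: growth inhibition of SW982 cells, read out with a cell viability assay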
# Test: cells
# Assay type: functional, cell-based, Homo sapiens
# Conditions: Homo sapiens, SW982
# Description: SANGER: Inhibition of human SW982 cell growth in a cell viability assay.
row,Structure (SMILES),IC50
1,Cc1cn(-c2cc(NC(=O)c3ccc(C)c(Nc4nccc(-c5cccnc5)n4)c3)cc(C(F)(F)F)c2)cn1 [NILOTINIB],> 2 µM

# Test system: 697
# Test: cells
# Assay type: functional, cell-based, Homo sapiens
# Conditions: Homo sapiens
# Description: SANGER: Inhibition of human 697 cell growth in a cell viability assay.
row,Structure (SMILES),IC50
1,Cc1cn(-c2cc(NC(=O)c3ccc(C)c(Nc4nccc(-c5cccnc5)n4)c3)cc(C(F)(F)F)c2)cn1 [NILOTINIB],> 2 µM

# Test system: BB49-HNC;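 further: cell viability assay read-out, reported as inhibition of BB49-HNC cell growth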
# Test: cells
# Assay type: functional, cell-based, Homo sapiens
# Conditions: Homo sapiens, BB49-HNC
# Description: SANGER: Inhibition of human BB49-HNC cell growth in a cell viability assay.
row,Structure (SMILES),IC50
1,Cc1cn(-c2cc(NC(=O)c3ccc(C)c(Nc4nccc(-c5cccnc5)n4)c3)cc(C(F)(F)F)c2)cn1 [NILOTINIB],> 2 µM

# Test system: TE-12;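 further: growth inhibition of TE-12 cells, read out by a cell viability assay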
# Test: cells
# Assay type: functional, cell-based, Homo sapiens
# Conditions: Homo sapiens, TE-12
# Description: SANGER: Inhibition of human TE-12 cell growth in a cell viability assay.
row,Structure (SMILES),IC50
1,Cc1cn(-c2cc(NC(=O)c3ccc(C)c(Nc4nccc(-c5cccnc5)n4)c3)cc(C(F)(F)F)c2)cn1 [NILOTINIB],> 2 µM

# Test system: TE-8;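 further: growth inhibition of TE-8 cells, measured with a cell viability readout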
# Test: cells
# Assay type: functional, cell-based, Homo sapiens
# Conditions: Homo sapiens, TE-8
# Description: SANGER: Inhibition of human TE-8 cell growth in a cell viability assay.
row,Structure (SMILES),IC50
1,Cc1cn(-c2cc(NC(=O)c3ccc(C)c(Nc4nccc(-c5cccnc5)n4)c3)cc(C(F)(F)F)c2)cn1 [NILOTINIB],> 2 µM

# Test system: TGBC1TKB;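 further: growth inhibition of TGBC1TKB cells, read out by a cell viability assay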
# Test: cells
# Assay type: functional, cell-based, Homo sapiens
# Conditions: Homo sapiens, TGBC1TKB
# Description: SANGER: Inhibition of human TGBC1TKB cell growth in a cell viability assay.
row,Structure (SMILES),IC50
1,Cc1cn(-c2cc(NC(=O)c3ccc(C)c(Nc4nccc(-c5cccnc5)n4)c3)cc(C(F)(F)F)c2)cn1 [NILOTINIB],> 2 µM

# Test system: TGBC24TKB;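 further: growth inhibition of human TGBC24TKB cells, read out with a cell viability assay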
# Test: cells
# Assay type: functional, cell-based, Homo sapiens
# Conditions: Homo sapiens, TGBC24TKB
# Description: SANGER: Inhibition of human TGBC24TKB cell growth in a cell viability assay.
row,Structure (SMILES),IC50
1,Cc1cn(-c2cc(NC(=O)c3ccc(C)c(Nc4nccc(-c5cccnc5)n4)c3)cc(C(F)(F)F)c2)cn1 [NILOTINIB],> 2 µM

# Test system: U-266
# Test: cells
# Assay type: functional, cell-based, Homo sapiens
# Conditions: Homo sapiens, U-266
# Description: SANGER: Inhibition of human U-266 cell growth in a cell viability assay.
row,Structure (SMILES),IC50
1,Cc1cn(-c2cc(NC(=O)c3ccc(C)c(Nc4nccc(-c5cccnc5)n4)c3)cc(C(F)(F)F)c2)cn1 [NILOTINIB],> 2 µM

# Test system: VA-ES-BJ;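 further: growth inhibition of the VA-ES-BJ cell line, read out by a cell viability assay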
# Test: cells
# Assay type: functional, cell-based, Homo sapiens
# Conditions: Homo sapiens, VA-ES-BJ
# Description: SANGER: Inhibition of human VA-ES-BJ cell growth in a cell viability assay.
row,Structure (SMILES),IC50
1,Cc1cn(-c2cc(NC(=O)c3ccc(C)c(Nc4nccc(-c5cccnc5)n4)c3)cc(C(F)(F)F)c2)cn1 [NILOTINIB],> 2 µM

# Test system: no-11;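 further: growth inhibition of human NO-11 cells, read out with a cell viability assay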
# Test: cells
# Assay type: functional, cell-based, Homo sapiens
# Conditions: Homo sapiens
# Description: SANGER: Inhibition of human no-11 cell growth in a cell viability assay.
row,Structure (SMILES),IC50
1,Cc1cn(-c2cc(NC(=O)c3ccc(C)c(Nc4nccc(-c5cccnc5)n4)c3)cc(C(F)(F)F)c2)cn1 [NILOTINIB],> 2 µM

# Test system: CCRF-CEM;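 further: inhibition of CCRF-CEM cell growth, measured by a cell viability assay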
# Test: cells
# Assay type: functional, cell-based, Homo sapiens
# Conditions: Homo sapiens, CCRF-CEM
# Description: SANGER: Inhibition of human CCRF-CEM cell growth in a cell viability assay.
row,Structure (SMILES),IC50
1,Cc1cn(-c2cc(NC(=O)c3ccc(C)c(Nc4nccc(-c5cccnc5)n4)c3)cc(C(F)(F)F)c2)cn1 [NILOTINIB],> 2 µM

# Test system: COLO-668
# Test: cells
# Assay type: functional, cell-based, Homo sapiens
# Conditions: Homo sapiens, COLO-668
# Description: SANGER: Inhibition of human COLO-668 cell growth in a cell viability assay.
row,Structure (SMILES),IC50
1,Cc1cn(-c2cc(NC(=O)c3ccc(C)c(Nc4nccc(-c5cccnc5)n4)c3)cc(C(F)(F)F)c2)cn1 [NILOTINIB],> 2 µM

# Test system: COLO-684
# Test: cells
# Assay type: functional, cell-based, Homo sapiens
# Conditions: Homo sapiens, COLO-684
# Description: SANGER: Inhibition of human COLO-684 cell growth in a cell viability assay.
row,Structure (SMILES),IC50
1,Cc1cn(-c2cc(NC(=O)c3ccc(C)c(Nc4nccc(-c5cccnc5)n4)c3)cc(C(F)(F)F)c2)cn1 [NILOTINIB],> 2 µM
